Read-outs that look alike come from different tables or passages of the source.
How the values were obtained:
[1] = biological target: T1, human NPC1L1 (Homo sapiens, UniProt Q9UHC9, G1187D/M616T/T1073A); test: Binding to membranes of HEK-293 cells expressing recombinant human NPC1L1; parameters: expressed in transfected cells; host or cells: HEK-293 cells (ATCC), transient, pCR3.1; membranes; conditions: 0.03% sodium taurocholate and 0.05% digitonin; 1.25 mg protein/ml, 100 nM 1
T1 sequence (Q9UHC9 22-1332 isoform Q9UHC9-2 M616T/T1046A/G1160D limits assumed): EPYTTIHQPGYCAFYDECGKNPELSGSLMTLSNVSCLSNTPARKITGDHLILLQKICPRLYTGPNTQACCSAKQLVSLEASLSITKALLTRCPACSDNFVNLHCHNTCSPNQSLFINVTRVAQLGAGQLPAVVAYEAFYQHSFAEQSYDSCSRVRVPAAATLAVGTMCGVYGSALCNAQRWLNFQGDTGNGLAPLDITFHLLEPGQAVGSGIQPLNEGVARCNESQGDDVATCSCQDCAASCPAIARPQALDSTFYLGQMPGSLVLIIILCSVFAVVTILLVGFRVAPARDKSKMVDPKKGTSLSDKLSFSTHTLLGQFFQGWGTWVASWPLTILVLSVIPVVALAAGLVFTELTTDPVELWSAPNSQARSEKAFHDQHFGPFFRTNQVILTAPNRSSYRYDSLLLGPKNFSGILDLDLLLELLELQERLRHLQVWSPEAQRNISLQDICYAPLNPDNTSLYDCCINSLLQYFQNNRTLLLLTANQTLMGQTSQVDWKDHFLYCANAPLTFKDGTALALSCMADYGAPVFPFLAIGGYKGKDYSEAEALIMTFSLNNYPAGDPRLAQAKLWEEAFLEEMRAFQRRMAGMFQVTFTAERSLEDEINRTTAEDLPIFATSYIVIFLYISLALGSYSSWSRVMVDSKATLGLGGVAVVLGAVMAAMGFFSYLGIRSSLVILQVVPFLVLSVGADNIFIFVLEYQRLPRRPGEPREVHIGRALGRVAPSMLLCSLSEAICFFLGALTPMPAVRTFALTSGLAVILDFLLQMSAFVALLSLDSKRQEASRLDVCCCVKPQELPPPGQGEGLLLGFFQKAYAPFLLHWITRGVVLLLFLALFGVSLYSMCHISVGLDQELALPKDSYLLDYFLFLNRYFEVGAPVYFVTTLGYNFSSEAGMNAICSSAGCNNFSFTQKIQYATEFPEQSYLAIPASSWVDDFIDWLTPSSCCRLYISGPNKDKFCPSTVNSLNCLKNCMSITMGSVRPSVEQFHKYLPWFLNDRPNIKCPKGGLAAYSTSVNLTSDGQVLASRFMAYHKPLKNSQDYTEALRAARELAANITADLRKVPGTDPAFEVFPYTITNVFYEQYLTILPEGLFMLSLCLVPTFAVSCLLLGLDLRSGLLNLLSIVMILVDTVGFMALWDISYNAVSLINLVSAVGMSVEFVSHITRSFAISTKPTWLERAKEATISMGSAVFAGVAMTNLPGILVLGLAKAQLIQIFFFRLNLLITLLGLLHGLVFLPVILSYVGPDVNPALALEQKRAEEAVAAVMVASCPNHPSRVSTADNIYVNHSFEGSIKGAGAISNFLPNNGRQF
Procedure: Transient expression of NPC1L1. Plasmid pCR3.1 expressing rat NPC1L1 (Genbank AY437867) or human NPC1L1 (Genbank AY437865) were prepared using standard molecular biology protocols. HEK-293 cells (ATCC) were seeded at 10×10^6 cells per T-225 flask (Corning) in DMEM containing 10% fetal calf serum, 4.5 g/L D-glucose and L-glutamine, 18 hours prior to transfection. They were transiently transfected with 25 μg of DNA using Fugene transfection reagent (Roche Biochemical) at a ratio of 6:1 Fugene:DNA. Following transfection, the cells were incubated at 37° C. and 5% CO2 for 48 hours, and then harvested using PBS based cell dissociation buffer (Gibco), pelleted at 500×g, snap frozen on dry ice, and stored at −80° C.
Membrane preparation from HEK-293 cells. Membranes were prepared by resuspending the frozen cell pellets in ten volumes of 20 mM HEPES/Tris buffer at pH 7.40 containing 8% sucrose, and sonicating the suspensions with a probe sonicator on ice until most of the cells were lysed. To isolate the membranes, the sonicates were centrifuged at 1600×g for 10 min to remove cell debris, and then the supernatants were centrifuged at 125,000×g for 1 hour to recover the membranes. These membranes were resuspended in 20 mM HEPES/Tris buffer at pH 7.40 containing 160 mM NaCl and 5% glycerol, and stored at 10-20 mg/ml protein at −80° C.
Analog structures are defined in Table 12.

[2] = biological target: T2, mouse intestinal brush border membranes (Mus musculus, UniProt Q6T3U4); test: Binding assay with mouse (wild type) brush border membrane vesicles
T2 construct: from tissue; host or cells: mouse small-intestinal mucosa (C57BL/6J; wild-type littermates in the knockout comparison), brush border membrane vesicles
Procedure: Glass fiber filters (GF/C) were obtained from Whatman.
For rhesus brush border membranes vesicles, 56 μg protein/assay were incubated with 25 nM ^3H-EZE-glucuronide in the presence of increasing concentrations of EZE-glucuronide and 2. For rat brush border membranes vesicles, 150 μg protein/assay were incubated with 50 nM ^3H-EZE-glucuronide in the presence of increasing concentrations of EZE-glucuronide and 2. For mouse brush border membranes vesicles, 20 μg protein/assay were incubated with 3 nM ^35S-2 in the presence of increasing concentrations of EZE-glucuronide and 2.
Brush border membranes vesicles were prepared from intestinal tissues of wild type and NPC1L1 knockout (−/−) mice. 15, 30 and 60 μg protein/assay of brush border membranes vesicles were incubated with 4 nM ^35S-2 in buffer A for 3 hours at 37° C. in the presence and absence of 100 μM EZE-glucuronide.
For FIG. 14A, enterocyte brush border membranes were prepared from NPC1L1 deficient male mice and same sex wild-type littermates, and tested for binding of 1. […] Membranes from wild type mice are on the left and from NPC1L1 deficient mice on the right.

[3] = 3 nM ^35S-2, 20 μg protein/assay, read-out: inhibition constant Ki, Mouse

With `O=C(O)[C@H]1O[C@@H](Oc2ccc([C@@H]3[C@@H](CCCc4ccc(F)cc4)C(=O)N3c3ccc(F)cc3)cc2)[C@H](O)[C@@H](O)[C@@H]1O` [Compound 3] the Ki [1] was 1 µM.

With `O=C(O)C1OC(Oc2ccc(C3C(CCC(O)c4ccc(F)cc4)C(=O)N3c3ccc(F)cc3)cc2)C(O)C(O)C1O` (single isomer, unassigned) [Compound 4] the Ki [1] was 130 µM.

In the case of `O=C(CC[C@H]1C(=O)N(c2ccc(F)cc2)[C@@H]1c1ccc(O[C@@H]2O[C@H](C(=O)O)[C@@H](O)[C@H](O)[C@H]2O)cc1)c1ccc(F)cc1` [Compound 6], the Ki [1] is reported as 14 µM.

In the case of `CS(=O)(=O)NCC#Cc1ccc(N2C(=O)[C@H](CC[C@H](O)c3ccc(F)cc3)[C@H]2c2ccc(O[C@@H]3O[C@H](C(=O)O)[C@@H](O)[C@H](O)[C@H]3O)cc2)cc1` [Compound 2, 4-[(2S,3R)-3-[(3S)-3 (4-fluorophenyl)-3-hydroxypropyl]-1-(4-{3-[(methylsulfonyl)amino]prop-1-yn-1-yl}phenyl)-4-oxoazetidin-2-yl]phenyl β-D-glucopyranosiduronic acid], the “affinity for mouse membranes (in words)” value [2] is reported as “enhanced affinity”, the Ki [2, 3] is reported as 0.144 µM and the “binding to wild type control membranes” value ([2]; 4 nM ^35S-2) is reported as “detectable binding”. The Kd ([2]; control (wild type) mouse membranes, 4 nM ^35S-2, 3 hours at 37° C.) was 0.156 µM.

Work on `O=C(O)[C@H]1O[C@@H](Oc2ccc([C@@H]3[C@@H](CC[C@@H](O)c4ccc(F)cc4)C(=O)N3c3ccc(F)cc3)cc2)[C@H](O)[C@@H](O)[C@@H]1O` [Compound 5] yielded a Ki [1] of 1.3 µM.

With `O=C(O)[C@H]1O[C@@H](Oc2ccc([C@@H]3[C@@H](CC[C@H](O)c4ccc(F)cc4)C(=O)N3c3ccc(F)cc3)cc2)[C@H](O)[C@@H](O)[C@@H]1O` [Compound 1, Ezetimibe glucuronide] the Ki [1] was 0.22 µM, the “affinity for mouse membranes (in words)” value [2] was “low affinity” and the Ki [2, 3] was 2.3 µM. For the same molecule, the Kd ([2]; age-matched wild-type mice, 0.03% sodium taurocholate and 0.05% digitonin) was 12 µM, the IC50 ([2]; mouse, read-out: in vitro binding affinity (IC50)) was 12 µM and the Kd ([2]; murine membranes, text of b482) was 10 µM. For the same molecule, the Ki ([2]; wild-type mice, 5 mg/ml protein, 500 nM 1, 0.03% taurocholate, 0.05% digitonin, read-out: Ki, competition of unlabeled ezetimibe glucuronide against 1) was 12 µM.

With `O=C1[C@H](CC[C@H](O)c2ccc(F)cc2)[C@@H](c2ccc(O)cc2)N1c1ccc(F)cc1` [ezetimibe] the Kd ([2]; Table 11, mouse, absence of detergents) was 12 µM.
